Laboratory results published in US20260130395A1, “Water Dispersible Botanical Compositions” (Aquila Black Limited, priority 2021, published 2026).

Experiments:
[1] = Stability of cannabinoid entourage and Vitamin E components of the powder concentrate by LCMSMS; assay type: physicochemical; settings: for Stability of Plant-Derived Cannabinoid Compounds in Powder Concentrate: powder stored at 21-25° C.
Protocol: At each time period, 0.05 g of powder was dissolved in 10 ml-15 of ethanol, diluted to fall within the analytical range, and injected into the LCMSMS for analysis.

[2] = Stability of cannabinoid compounds and Vitamin E components in Beverage 1 (AB White) by LCMSMS; assay type: physicochemical; settings: AB White stored at 8° C.

Structure (SMILES): CCCCCc1cc(O)c2c(c1)OC(C)(C)[C@@H]1CCC(C)=C[C@@H]21 [D9 THC, delta-9-tetrahydrocannabinol, reference compound]
- degradation over the entire period (in words) ([1]; powder concentrate stored at 21-25° C., 570 days): no significant degradation
- Stability of Plant-Derived Cannabinoid Compounds in Powder Concentrate ([1]; 0 days): 2.55 mg/g powder
- Stability of Plant-Derived Cannabinoid Compounds in Powder Concentrate ([1]; 1 days): 2.55 mg/g powder
- Stability of Plant-Derived Cannabinoid Compounds in Powder Concentrate ([1]; 2 days): 2.46 mg/g powder
- Stability of Plant-Derived Cannabinoid Compounds in Powder Concentrate ([1]; 3 days): 2.63 mg/g powder
- Stability of Plant-Derived Cannabinoid Compounds in Powder Concentrate ([1]; 5 days): 2.66 mg/g powder
- Stability of Plant-Derived Cannabinoid Compounds in Powder Concentrate ([1]; 8 days): 2.49 mg/g powder
- Stability of Plant-Derived Cannabinoid Compounds in Powder Concentrate ([1]; 9 days): 2.49 mg/g powder
- Stability of Plant-Derived Cannabinoid Compounds in Powder Concentrate ([1]; 10 days): 2.60 mg/g powder
- Stability of Plant-Derived Cannabinoid Compounds in Powder Concentrate ([1]; 11 days): 2.58 mg/g powder
- Stability of Plant-Derived Cannabinoid Compounds in Powder Concentrate ([1]; 12 days): 2.65 mg/g powder
- Stability of Plant-Derived Cannabinoid Compounds in Powder Concentrate ([1]; 15 days): 2.49 mg/g powder
- Stability of Plant-Derived Cannabinoid Compounds in Powder Concentrate ([1]; 16 days): 2.54 mg/g powder
- Stability of Plant-Derived Cannabinoid Compounds in Powder Concentrate ([1]; 17 days): 2.54 mg/g powder
- Stability of Plant-Derived Cannabinoid Compounds in Powder Concentrate ([1]; 18 days): 2.55 mg/g powder
- Stability of Plant-Derived Cannabinoid Compounds in Powder Concentrate ([1]; 19 days): 2.51 mg/g powder
- Stability of Plant-Derived Cannabinoid Compounds in Powder Concentrate ([1]; 22 days): 2.46 mg/g powder
- Stability of Plant-Derived Cannabinoid Compounds in Powder Concentrate ([1]; 23 days): 2.65 mg/g powder
- Stability of Plant-Derived Cannabinoid Compounds in Powder Concentrate ([1]; 24 days): 2.60 mg/g powder
- Stability of Plant-Derived Cannabinoid Compounds in Powder Concentrate ([1]; 25 days): 2.55 mg/g powder
- Stability of Plant-Derived Cannabinoid Compounds in Powder Concentrate ([1]; 26 days): 2.52 mg/g powder
- Stability of Plant-Derived Cannabinoid Compounds in Powder Concentrate ([1]; 29 days): 2.47 mg/g powder
- Stability of Plant-Derived Cannabinoid Compounds in Powder Concentrate ([1]; 30 days): 2.66 mg/g powder
- Stability of Plant-Derived Cannabinoid Compounds in Powder Concentrate ([1]; 60 days): 2.66 mg/g powder
- Stability of Plant-Derived Cannabinoid Compounds in Powder Concentrate ([1]; 90 days): 2.49 mg/g powder
- Stability of Plant-Derived Cannabinoid Compounds in Powder Concentrate ([1]; 120 days): 2.66 mg/g powder
- Stability of Plant-Derived Cannabinoid Compounds in Powder Concentrate ([1]; 150 days): 2.61 mg/g powder
- Stability of Plant-Derived Cannabinoid Compounds in Powder Concentrate ([1]; 180 days): 2.59 mg/g powder
- Stability of Plant-Derived Cannabinoid Compounds in Powder Concentrate ([1]; 210 days): 2.54 mg/g powder
- Stability of Plant-Derived Cannabinoid Compounds in Powder Concentrate ([1]; 240 days): 2.53 mg/g powder
- Stability of Plant-Derived Cannabinoid Compounds in Powder Concentrate ([1]; 270 days): 2.47 mg/g powder
- Stability of Plant-Derived Cannabinoid Compounds in Powder Concentrate ([1]; 300 days): 2.57 mg/g powder
- Stability of Plant-Derived Cannabinoid Compounds in Powder Concentrate ([1]; 330 days): 2.49 mg/g powder
- Stability of Plant-Derived Cannabinoid Compounds in Powder Concentrate ([1]; 360 days): 2.58 mg/g powder
- Stability of Plant-Derived Cannabinoid Compounds in Powder Concentrate ([1]; 390 days): 2.48 mg/g powder
- Stability of Plant-Derived Cannabinoid Compounds in Powder Concentrate ([1]; 420 days): 2.53 mg/g powder
- Stability of Plant-Derived Cannabinoid Compounds in Powder Concentrate ([1]; 450 days): 2.61 mg/g powder
- Stability of Plant-Derived Cannabinoid Compounds in Powder Concentrate ([1]; 480 days): 2.65 mg/g powder
- Stability of Plant-Derived Cannabinoid Compounds in Powder Concentrate ([1]; 510 days): 2.64 mg/g powder
- Stability of Plant-Derived Cannabinoid Compounds in Powder Concentrate ([1]; 540 days): 2.47 mg/g powder
- Stability of Plant-Derived Cannabinoid Compounds in Powder Concentrate ([1]; 570 days): 2.64 mg/g powder
- Stability of Plant-Derived Cannabinoid Compounds in AB White, 8° C. ([2]; 0 days): 12.2 µg/mL
- Stability of Plant-Derived Cannabinoid Compounds in AB White, 8° C. ([2]; 1 days): 12.20 µg/mL
- Stability of Plant-Derived Cannabinoid Compounds in AB White, 8° C. ([2]; 2 days): 11.91 µg/mL
- Stability of Plant-Derived Cannabinoid Compounds in AB White, 8° C. ([2]; 3 days): 12.25 µg/mL
- Stability of Plant-Derived Cannabinoid Compounds in AB White, 8° C. ([2]; 5 days): 12.11 µg/mL
- Stability of Plant-Derived Cannabinoid Compounds in AB White, 8° C. ([2]; 8 days): 11.83 µg/mL
- Stability of Plant-Derived Cannabinoid Compounds in AB White, 8° C. ([2]; 9 days): 12.14 µg/mL
- Stability of Plant-Derived Cannabinoid Compounds in AB White, 8° C. ([2]; 10 days): 12.07 µg/mL
- Stability of Plant-Derived Cannabinoid Compounds in AB White, 8° C. ([2]; 11 days): 11.83 µg/mL
- Stability of Plant-Derived Cannabinoid Compounds in AB White, 8° C. ([2]; 12 days): 11.88 µg/mL
- Stability of Plant-Derived Cannabinoid Compounds in AB White, 8° C. ([2]; 15 days): 12.08 µg/mL
- Stability of Plant-Derived Cannabinoid Compounds in AB White, 8° C. ([2]; 16 days): 12.18 µg/mL
- Stability of Plant-Derived Cannabinoid Compounds in AB White, 8° C. ([2]; 17 days): 12.05 µg/mL
- Stability of Plant-Derived Cannabinoid Compounds in AB White, 8° C. ([2]; 18 days): 12.00 µg/mL
- Stability of Plant-Derived Cannabinoid Compounds in AB White, 8° C. ([2]; 19 days): 12.11 µg/mL
- Stability of Plant-Derived Cannabinoid Compounds in AB White, 8° C. ([2]; 22 days): 11.97 µg/mL
- Stability of Plant-Derived Cannabinoid Compounds in AB White, 8° C. ([2]; 23 days): 12.03 µg/mL
- Stability of Plant-Derived Cannabinoid Compounds in AB White, 8° C. ([2]; 24 days): 11.87 µg/mL
- Stability of Plant-Derived Cannabinoid Compounds in AB White, 8° C. ([2]; 25 days): 11.99 µg/mL
- Stability of Plant-Derived Cannabinoid Compounds in AB White, 8° C. ([2]; 26 days): 11.97 µg/mL
